18 compounds from US8466193B2, “Selective inhibitors of histone deacetylase” (Pharmacyclics, Inc., priority 2008, dated 2013) can be followed below.

Molecules are shown by their SMILES.

Broadly, the IC50 is the concentration that gives 50% inhibition. Higher therefore signals lower potency. A word on the GI50: it is the concentration at which growth is held to half of that of the control.

For one assay, the target named is HDAC1 (Homo sapiens, UniProt Q13547). Briefly: Histone deacetylase activity, continuous trypsin-coupled assay. Type of assay: biochemical. The following applies: 15 minutes preincubation; substrate acetyl-Gly-Ala-(N-acetyl-Lys)-AMC. The method, then:
(§1) HDAC activity was measured using a continuous trypsin-coupled assay that has been described in detail previously (US 20070281934; Schultz et. al., Biochemistry, 43 (34), 11083-11091, 2004; Kim et al. (2006), Methods Mol. Biol., 325:273-283). For inhibitor characterization, measurements were performed in a reaction volume of 100 μL using 96-well assay plates in a fluorescence plate reader. For each isozyme, the HDAC protein in reaction buffer (50 mM HEPES, 100 mM KCl, 0.001% Tween-20, 5% DMSO, pH 7.4, supplemented with bovine serum albumin at concentrations of 0-0.05%, was mixed with inhibitor at various concentrations and allowed to incubate for 15 minutes. Trypsin was added to a final concentration of 50 nM, and acetyl-Gly-Ala-(N-acetyl-Lys)-AMC was added to a final concentration of 25-100 μM to initiate the reaction. After a 30 minute lag time, the fluorescence was measured over a 30 minute time frame using an excitation wavelength of 355 nm and a detection wavelength of 460 nm. The increase in fluorescence with time was used as the measure of the reaction rate. Inhibition constants Ki(app) were obtained using the program BatchKi (Biokin, Pullman, Wash.).

The next assay deals with T1, HDAC6 (Homo sapiens, UniProt Q9UBN7).
T1 sequence (Q9UBN7 1-1215): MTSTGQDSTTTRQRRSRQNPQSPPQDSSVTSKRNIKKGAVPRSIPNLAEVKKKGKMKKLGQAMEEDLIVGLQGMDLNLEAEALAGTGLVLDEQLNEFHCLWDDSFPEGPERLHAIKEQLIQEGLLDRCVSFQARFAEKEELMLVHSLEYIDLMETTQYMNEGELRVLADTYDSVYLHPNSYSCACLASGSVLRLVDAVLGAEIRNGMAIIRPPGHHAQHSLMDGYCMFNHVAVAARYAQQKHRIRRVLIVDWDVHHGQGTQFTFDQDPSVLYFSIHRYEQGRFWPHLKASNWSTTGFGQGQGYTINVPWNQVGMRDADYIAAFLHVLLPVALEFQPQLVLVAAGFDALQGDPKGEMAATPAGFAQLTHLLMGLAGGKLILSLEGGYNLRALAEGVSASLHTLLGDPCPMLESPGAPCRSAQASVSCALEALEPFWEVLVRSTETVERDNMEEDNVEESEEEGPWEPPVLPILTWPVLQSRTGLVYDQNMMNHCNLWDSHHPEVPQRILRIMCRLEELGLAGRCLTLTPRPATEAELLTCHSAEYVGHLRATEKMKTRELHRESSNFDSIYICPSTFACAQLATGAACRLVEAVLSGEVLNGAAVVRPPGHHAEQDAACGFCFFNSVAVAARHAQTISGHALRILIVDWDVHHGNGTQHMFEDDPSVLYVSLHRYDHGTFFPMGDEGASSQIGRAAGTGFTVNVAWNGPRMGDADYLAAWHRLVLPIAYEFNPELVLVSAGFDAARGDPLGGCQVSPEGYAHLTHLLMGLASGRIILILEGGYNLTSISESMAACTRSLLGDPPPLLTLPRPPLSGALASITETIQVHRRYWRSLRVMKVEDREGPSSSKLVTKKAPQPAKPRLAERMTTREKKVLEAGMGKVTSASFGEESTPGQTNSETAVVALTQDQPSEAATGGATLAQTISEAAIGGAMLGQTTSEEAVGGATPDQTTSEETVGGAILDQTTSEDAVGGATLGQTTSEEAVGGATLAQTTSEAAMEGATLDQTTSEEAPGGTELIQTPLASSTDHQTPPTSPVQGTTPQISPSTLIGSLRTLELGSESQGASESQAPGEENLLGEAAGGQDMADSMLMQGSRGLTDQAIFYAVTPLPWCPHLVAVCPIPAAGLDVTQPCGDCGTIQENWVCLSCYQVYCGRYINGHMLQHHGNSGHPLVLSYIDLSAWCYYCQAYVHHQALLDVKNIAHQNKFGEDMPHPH
Described as above. The settings on record: 15 minutes preincubation; substrate acetyl-Gly-Ala-(N-acetyl-Lys)-AMC. Type of assay: biochemical. The method, then:
as §1

Another assay deals with T2, HDAC8 (Homo sapiens, UniProt Q9BY41).
T2 sequence (Q9BY41 1-377): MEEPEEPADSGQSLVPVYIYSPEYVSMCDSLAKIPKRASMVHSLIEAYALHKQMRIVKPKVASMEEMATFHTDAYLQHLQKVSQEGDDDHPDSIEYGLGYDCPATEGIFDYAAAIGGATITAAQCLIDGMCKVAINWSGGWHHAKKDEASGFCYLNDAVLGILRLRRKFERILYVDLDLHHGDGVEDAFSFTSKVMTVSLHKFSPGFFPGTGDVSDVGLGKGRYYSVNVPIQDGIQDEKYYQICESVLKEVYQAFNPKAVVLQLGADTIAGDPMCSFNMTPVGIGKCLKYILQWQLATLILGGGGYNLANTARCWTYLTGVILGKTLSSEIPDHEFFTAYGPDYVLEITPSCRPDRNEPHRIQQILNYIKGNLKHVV
The assay is described as above. The class given is biochemical. The settings on record: 15 minutes preincubation; substrate acetyl-Gly-Ala-(N-acetyl-Lys)-AMC. The method, then: as §1

Another assay has as its system Jurkat cells. The assay is described as follows: Cell proliferation assay, growth inhibition by Alamar Blue. The settings on record: Jurkat cells treated with compound for 3 days. The class given is cell-based. The method, then: Cell lines were obtained from DSMZ (Braunschweig, Germany) or ATCC (Manassas, Va.). Cells were grown in RPMI 1640 with 10% fetal bovine serum in a 5% CO2/air incubator at 37° C. Thapsigargin and BAPTA-AM were from Calbiochem (San Diego, Calif.). 3-((dimethylamino)methyl)-N-(2-(4-(hydroxycarbamoyl)phenoxy)ethyl)benzofuran-2-carboxamide is a broad-spectrum HDAC inhibitor which was synthesized as previously described. Other analogs with varying degrees of specificity towards the HDAC isoforms were synthesized as described herein.
Tumor cell lines and human umbilical vein endothelial cells (HUVEC) were cultured for at least two doubling times, and growth was monitored at the end of compound exposure using an Alamar Blue™ (Biosource, Camarillo, Calif.) fluorometric cell proliferation assay as recommended by the manufacturer. Compounds were assayed in triplicate wells in 96-well plates. The concentration required to inhibit cell growth by 50% (GI50) and 95% confidence intervals were estimated from nonlinear regression using a 4-parameter logistic equation. The effect of HDAC8 selective inhibitor compounds on cell proliferation in Jurkat cells was measured. Apoptosis was measured by Annexin-V flow cytommetry. Growth inhibition was measured by Alamar Blue assay. Cells were treated with compound for 3 days.
A general note: Alamar Blue is a resazurin reagent that responds to reducing activity.

The target of the next assay is HDAC2 (Homo sapiens, UniProt Q92769). Briefly: Histone deacetylase activity, continuous trypsin-coupled assay. Type of assay: biochemical. The following applies: 15 minutes preincubation; substrate acetyl-Gly-Ala-(N-acetyl-Lys)-AMC. The method, then: as §1
Sequence of HDAC2 (Q92769 whole entry, species assumed): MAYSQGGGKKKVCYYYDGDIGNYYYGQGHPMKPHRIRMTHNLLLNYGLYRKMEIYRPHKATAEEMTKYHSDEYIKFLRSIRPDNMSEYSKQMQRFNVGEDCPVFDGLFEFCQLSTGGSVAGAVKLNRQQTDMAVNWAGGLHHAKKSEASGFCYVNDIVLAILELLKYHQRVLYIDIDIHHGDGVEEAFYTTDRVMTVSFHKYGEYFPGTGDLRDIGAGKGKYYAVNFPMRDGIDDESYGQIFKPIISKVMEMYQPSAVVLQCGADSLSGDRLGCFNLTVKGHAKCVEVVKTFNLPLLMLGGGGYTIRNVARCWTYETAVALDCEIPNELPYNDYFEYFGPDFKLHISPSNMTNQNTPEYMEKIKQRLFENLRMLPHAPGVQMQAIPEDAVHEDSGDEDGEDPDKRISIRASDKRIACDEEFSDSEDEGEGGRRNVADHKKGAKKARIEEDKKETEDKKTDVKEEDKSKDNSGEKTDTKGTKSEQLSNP

Sequence of HDAC1 (Q13547 whole entry, species assumed): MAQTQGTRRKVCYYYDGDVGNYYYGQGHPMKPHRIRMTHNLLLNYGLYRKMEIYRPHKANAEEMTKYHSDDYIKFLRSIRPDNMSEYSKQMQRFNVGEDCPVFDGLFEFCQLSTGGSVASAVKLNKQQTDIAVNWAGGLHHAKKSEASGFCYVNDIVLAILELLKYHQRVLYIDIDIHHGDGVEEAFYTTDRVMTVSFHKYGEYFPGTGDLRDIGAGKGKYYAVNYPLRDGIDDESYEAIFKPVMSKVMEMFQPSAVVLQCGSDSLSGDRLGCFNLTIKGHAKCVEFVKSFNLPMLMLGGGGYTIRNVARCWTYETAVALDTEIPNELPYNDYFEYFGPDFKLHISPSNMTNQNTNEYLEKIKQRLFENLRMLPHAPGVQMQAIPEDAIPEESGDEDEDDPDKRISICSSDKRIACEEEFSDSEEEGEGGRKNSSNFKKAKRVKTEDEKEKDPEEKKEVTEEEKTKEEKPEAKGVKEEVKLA

As to `O=C(NO)c1ccc2ccn(CCOc3ccccc3F)c2c1` [Compound 317, N-hydroxy-1-(2-(2-fluorophenoxy)ethyl)-1H-indole-6-carboxamide], the IC50 on HDAC1 was > 10 µM; at HDAC6 it was 1 to 10 µM; against HDAC8, < 1 µM.

`COc1ccc(Cn2cccc2/C=C/C(=O)NO)cc1` [Compound 203, (E)-3-(1-(4-methoxybenzyl)-1H-pyrrol-2-yl)-N-hydroxyacrylamide]: the values for the 50% inhibitory concentration (IC50) on HDAC1, at HDAC6 and at HDAC8 were > 10 µM, 1 to 10 µM and < 1 µM, respectively.

`O=C(/C=C/c1cccn1CCOc1cccc(F)c1)NO` [Compound 234, (E)-3-(1-(2-(3-fluorophenoxy)ethyl)-1H-pyrrol-2-yl)-N-hydroxyacrylamide]: the half-maximal inhibitory concentration (IC50) on HDAC1 was 1 to 10 µM; at HDAC6 it was 1 to 10 µM; against HDAC8, < 1 µM. Besides, the 50% growth inhibitory concentration (GI50) in the assay with Jurkat cells (Homo sapiens, 72 h) was 4.3 µM.

As for `COc1ccc(Cn2cc(CNCc3ccccc3)c3ccc(C(=O)NO)cc32)cc1` [Compound 308, 3-((benzylamino)methyl)-N-hydroxy-1-(4-methoxybenzyl)-1H-indole-6-carboxamide], the GI50 in the assay with Jurkat cells (Homo sapiens, 72 h) is 5.2 µM.

Consider `O=C(NO)c1ccc2ccn(CCOc3cccc(Cl)c3)c2c1` [Compound 321, N-hydroxy-1-(2-(3-chlorophenoxy)ethyl)-1H-indole-6-carboxamide], for which the IC50 against HDAC1 is > 10 µM; on HDAC6, 1 to 10 µM; against HDAC8 it was < 1 µM.

Consider `O=C(NO)c1ccc2ccn(CCOc3cccc(F)c3)c2c1` [Compound 318, N-hydroxy-1-(2-(3-fluorophenoxy)ethyl)-1H-indole-6-carboxamide], for which the IC50 was > 10 µM against HDAC1, 1 to 10 µM on HDAC6 and < 1 µM against HDAC8.

As for `COc1ccc(Cn2cc(CN(C)CCc3ccccn3)c3ccc(C(=O)NO)cc32)cc1` [Compound 309, N-hydroxy-1-(4-methoxybenzyl)-3-((methyl(2-(pyridin-2-yl)ethyl)amino)methyl)-1H-indole-6-carboxamide], the figures for the 50% inhibitory concentration (IC50) at HDAC2 and at HDAC8 were > 10 µM and < 1 µM, respectively. Also, in the assay with Jurkat cells (Homo sapiens, 72 h), the 50% growth inhibitory concentration (GI50) worked out at 19.2 µM.

In the case of `O=C(NO)c1ccc2ccn(CCOc3ccccc3Cl)c2c1` [Compound 320, N-hydroxy-1-(2-(2-chlorophenoxy)ethyl)-1H-indole-6-carboxamide], the IC50 on HDAC1 was > 10 µM; against HDAC6 it was 1 to 10 µM; on HDAC8, < 1 µM.

For `COc1ccc(Cn2cc(CN(C)C)c3ccc(C(=O)NO)cc32)cc1` [Compound 307, N-hydroxy-1-(4-methoxybenzyl)-3-(dimethylaminomethyl)-1H-indole-6-carboxamide], the values for the half-inhibitory concentration (IC50) against HDAC2 and against HDAC8 were > 10 µM and < 1 µM, respectively.

With `COc1ccc(Cn2ccc3ccc(C(=O)NO)cc32)cc1F` [Compound 330, N-hydroxy-1-(3-fluoro-4-methoxybenzyl)-1H-indole-6-carboxamide], the 50% growth inhibitory concentration (GI50) in the assay with Jurkat cells (Homo sapiens, 72 h) came out at 4.7 µM.

`O=C(NO)c1ccc2ccn(CCOc3ccc(CN4CCOCC4)cc3)c2c1` [Compound 328, N-hydroxy-1-(2-(4-(morpholin-4-ylmethyl)phenoxy)ethyl)-1H-indole-6-carboxamide]: in the assay on Jurkat cells (Homo sapiens, 72 h), the GI50 came out at 12.5 µM.

For `O=C(NO)c1ccc2ccn(Cc3cccc(NS(=O)(=O)c4ccccc4)c3)c2c1` [Compound 313, N-hydroxy-1-(3-(phenylsulfonamido)benzyl)-1H-indole-6-carboxamide], the IC50 was 1 to 10 µM on HDAC2 and < 1 µM against HDAC8. Moreover, the GI50 in the assay with Jurkat cells (Homo sapiens, 72 h) amounted to 5.2 µM.

Regarding `COc1ccc(Cn2ccc3ccc(C(=O)NO)cc32)cn1` [Compound 310, N-hydroxy-1-(2-methoxylpyridin-5-ylmethyl)-1H-indole-6-carboxamide], the values for the IC50 against HDAC2 and at HDAC8 were > 10 µM and < 1 µM, respectively. In addition, the concentration for 50% growth inhibition (GI50) with Jurkat cells (Homo sapiens, 72 h) turned out to be 16 µM.

For `COc1ccc(Cn2ccc3ccc(C(=O)NO)cc32)cc1` [Compound 306, N-hydroxy-1-(4-methoxybenzyl)-1H-indole-6-carboxamide], in the assay with Jurkat cells (Homo sapiens, 72 h), the concentration for 50% growth inhibition (GI50) is 3.6 µM.

`O=C(NO)c1ccc2ccn(Cc3ccc4c(c3)OCO4)c2c1` [Compound 315, N-hydroxy-1-(benzo[d][1,3]dioxol-5-ylmethyl)-1H-indole-6-carboxamide]: the IC50 against HDAC2 was > 10 µM; against HDAC8 it was < 1 µM.

For the compound `O=C(NO)c1ccc2ncn(Cc3ccccc3)c2c1` [Compound 1, 3-benzyl-N-hydroxy-3H-benzo[d]imidazole-5-carboxamide], the IC50 on HDAC1 was > 10 µM; against HDAC6 it was 1 to 10 µM; against HDAC8, < 1 µM.

Consider `O=C(/C=C/c1cccn1CCOc1ccccc1)NO` [Compound 232, (E)-N-hydroxy-3-(2-phenoxyethyl-1H-pyrrol-2-yl)acrylamide], for which the half-maximal inhibitory concentration (IC50) on HDAC1 is > 10 µM; against HDAC6 it was 1 to 10 µM; against HDAC8, < 1 µM. For the same compound, the GI50 in the assay with Jurkat cells stood at 4.98 µM.

As to `O=C(NO)c1ccc2ccn(CCc3ccccc3)c2c1` [Compound 302, N-hydroxy-1-(2-phenyl-ethyl)-1H-indole-6-carboxamide], the GI50 with Jurkat cells (Homo sapiens, 72 h) is 25.2 µM.
